The values below are quoted from earlier work in patent US20250144015A1, “Pharmaceutical Compositions” (Extrovis AG, priority 2023, published 2025).

For this series, the system named is opioid craving. Conditions: single high dose of 16 mg or 32 mg; opioid-dependent patients.

In the case of `CO[C@@]12CC[C@@]3(C[C@@H]1[C@](C)(O)C(C)(C)C)C1Cc4ccc(O)c5c4[C@@]3(CCN1CC1CC1)[C@H]2O5` [buprenorphine, [5α,7α(S)]-17-(Cyclopropylmethyl)-α-(1,1-dimethylethyl)-4,5-epoxy-18,19-dihydo-3-hydroxy-6-methoxy-α-methyl-6,14-ethenomorphinan-7-methanol], the “Effect on opioid craving” value is on record as “reduce opioid craving”.
